{"source": "paper PMC5218480", "about": "(PLoS ONE, 2017)", "tested_on": "MV-4-11 cells", "assay": "Gene expression microarray analysis (Affymetrix PrimeView) and GSEA", "assay_type": "cell-based, human", "set-up": "RFU PODN (11730768_x_at) / Fold change /veh PODN (11730768_x_at) / RFU LINC00158 (11744669_a_at) / Fold change /veh LINC00158 (11744669_a_at) / RFU DUSP10 (11751237_a_at) / Fold change /veh DUSP10 (11751237_a_at) / RFU ID3 (11757404_x_at) / Fold change /veh ID3 (11757404_x_at) / RFU PLEKHG5 (11737974_s_at) / Fold change /veh PLEKHG5 (11737974_s_at) / RFU LRRC4B (11730491_at) / Fold change /veh LRRC4B (11730491_at) / RFU GIMAP4 (11747438_a_at) / Fold change /veh GIMAP4 (11747438_a_at) / RFU KRT8 (11758183_x_at) / Fold change /veh KRT8 (11758183_x_at) / RFU CNN1 (11734310_a_at) / Fold change /veh CNN1 (11734310_a_at) / RFU VPS37D (11726825_at) / Fold change /veh VPS37D (11726825_at) / RFU C10orf10 (11716522_x_at) / Fold change /veh C10orf10 (11716522_x_at) / RFU KIR2DL2 /// KIR2DL4 /// KIR2DL5A /// KIR2DL5B /// KIR2DS1 /// KIR2DS2 /// KIR2DS3 /// KIR2DS4 /// KIR3DL3 /// KIR3DL3 /// KIR3DS1 (11738374_at) / Fold change /veh KIR2DL2 /// KIR2DL4 /// KIR2DL5A /// KIR2DL5B /// KIR2DS1 /// KIR2DS2 /// KIR2DS3 /// KIR2DS4 /// KIR3DL3 /// KIR3DL3 /// KIR3DS1 (11738374_at) / RFU C1QL1 (11718748_at) / Fold change /veh C1QL1 (11718748_at) / RFU TMPRSS4 (11747572_a_at) / Fold change /veh TMPRSS4 (11747572_a_at) / RFU HAMP (11756126_x_at) / Fold change /veh HAMP (11756126_x_at) / RFU RNFT2 (11725882_a_at) / Fold change /veh RNFT2 (11725882_a_at) / RFU NR4A2 (11747474_a_at) / Fold change /veh NR4A2 (11747474_a_at) / RFU ABCC12 (11746883_a_at) / Fold change /veh ABCC12 (11746883_a_at) / RFU TMEM136 (11760407_x_at) / Fold change /veh TMEM136 (11760407_x_at) / RFU CLDN22 /// WWC2 (11732394_at) / Fold change /veh CLDN22 /// WWC2 (11732394_at) / RFU HLA-DPB1 (11760878_x_at) / Fold change /veh HLA-DPB1 (11760878_x_at) / RFU SPINT1 (11716480_a_at) / Fold change /veh SPINT1 (11716480_a_at) / RFU GAP43 (11754022_s_at) / Fold change /veh GAP43 (11754022_s_at) / RFU A4GNT (11735810_at) / Fold change /veh A4GNT (11735810_at) / RFU PRB3 (11715151_x_at) / Fold change /veh PRB3 (11715151_x_at) / RFU TUBB4B (11761932_at) / Fold change /veh TUBB4B (11761932_at) / RFU CAPN14 (11732068_a_at) / Fold change /veh CAPN14 (11732068_a_at) / RFU TMCC2 (11721928_a_at) / Fold change /veh TMCC2 (11721928_a_at) / RFU IRGQ (11745062_a_at) / Fold change /veh IRGQ (11745062_a_at) / RFU FAM174B (11720279_a_at) / Fold change /veh FAM174B (11720279_a_at) / RFU TMPRSS4 (11748680_a_at) / Fold change /veh TMPRSS4 (11748680_a_at) / RFU FAM212B (11763350_a_at) / Fold change /veh FAM212B (11763350_a_at) / RFU PLEKHG5 (11743358_a_at) / Fold change /veh PLEKHG5 (11743358_a_at) / RFU ZSCAN30 (11745921_a_at) / Fold change /veh ZSCAN30 (11745921_a_at) / RFU CMKLR1 (11741424_a_at) / Fold change /veh CMKLR1 (11741424_a_at) / RFU LOC101060620 /// MAPK8IP1 (11723275_at) / Fold change /veh LOC101060620 /// MAPK8IP1 (11723275_at) / RFU SPTSSB (11747773_x_at) / Fold change /veh SPTSSB (11747773_x_at) / RFU PRSS12 (11739890_at) / Fold change /veh PRSS12 (11739890_at) / RFU BIN1 (11741810_x_at) / Fold change /veh BIN1 (11741810_x_at) / RFU WNT11 (11732464_a_at) / Fold change /veh WNT11 (11732464_a_at) / RFU C10orf10 (11716521_a_at) / Fold change /veh C10orf10 (11716521_a_at) / RFU C5orf56 (11738089_at) / Fold change /veh C5orf56 (11738089_at) / RFU CYB561 (11721691_x_at) / Fold change /veh CYB561 (11721691_x_at) / RFU ANKRD19P (11752326_a_at) / Fold change /veh ANKRD19P (11752326_a_at) / RFU OR2T12 /// OR2T33 /// OR2T8 (11738714_s_at) / Fold change /veh OR2T12 /// OR2T33 /// OR2T8 (11738714_s_at) / RFU VCAN (11748164_a_at) / Fold change /veh VCAN (11748164_a_at) / RFU JSRP1 (11732532_at) / Fold change /veh JSRP1 (11732532_at) / RFU KRTAP10-11 (11738290_x_at) / Fold change /veh KRTAP10-11 (11738290_x_at) / RFU MYO3A (11730013_a_at) / Fold change /veh MYO3A (11730013_a_at) / RFU EBF3 (11725865_a_at) / Fold change /veh EBF3 (11725865_a_at) / RFU CAMK2N1 (11719241_x_at) / Fold change /veh CAMK2N1 (11719241_x_at) / RFU C5orf56 (11738088_a_at) / Fold change /veh C5orf56 (11738088_a_at) / RFU OLFML3 (11715873_a_at) / Fold change /veh OLFML3 (11715873_a_at) / RFU LOC100653217 /// NTM (11731650_a_at) / Fold change /veh LOC100653217 /// NTM (11731650_a_at) / RFU MAPK11 (11762145_a_at) / Fold change /veh MAPK11 (11762145_a_at) / RFU FIZ1 (11724087_x_at) / Fold change /veh FIZ1 (11724087_x_at) / RFU OASL (11726364_x_at) / Fold change /veh OASL (11726364_x_at) / RFU SOX15 (11748057_x_at) / Fold change /veh SOX15 (11748057_x_at) / RFU CD79A (11719716_a_at) / Fold change /veh CD79A (11719716_a_at) / RFU HIST1H1D (11736915_at) / Fold change /veh HIST1H1D (11736915_at) / RFU CASKIN2 (11723855_a_at) / Fold change /veh CASKIN2 (11723855_a_at) / RFU LOC730098 (11760151_x_at) / Fold change /veh LOC730098 (11760151_x_at) / RFU OR4N2 (11742367_at) / Fold change /veh OR4N2 (11742367_at) / RFU PRRT2 (11749266_a_at) / Fold change /veh PRRT2 (11749266_a_at) / RFU SNX32 (11753110_a_at) / Fold change /veh SNX32 (11753110_a_at) / RFU CDHR5 (11726645_a_at) / Fold change /veh CDHR5 (11726645_a_at) / RFU RCAN1 (11760418_a_at) / Fold change /veh RCAN1 (11760418_a_at) / RFU FAM167A (11723789_a_at) / Fold change /veh FAM167A (11723789_a_at) / RFU FAM26E (11764081_at) / Fold change /veh FAM26E (11764081_at) / RFU ISYNA1 (11749810_s_at) / Fold change /veh ISYNA1 (11749810_s_at) / RFU ACY1 (11761880_at) / Fold change /veh ACY1 (11761880_at) / RFU 11764098_at / Fold change /veh 11764098_at / RFU SAMD14 (11745864_x_at) / Fold change /veh SAMD14 (11745864_x_at) / RFU NPB (11741838_a_at) / Fold change /veh NPB (11741838_a_at) / RFU TMPRSS6 (11731388_a_at) / Fold change /veh TMPRSS6 (11731388_a_at) / RFU KRTAP10-2 (11738614_at) / Fold change /veh KRTAP10-2 (11738614_at) / RFU ARHGAP8 /// PRR5-ARHGAP8 (11727945_x_at) / Fold change /veh ARHGAP8 /// PRR5-ARHGAP8 (11727945_x_at) / RFU KRTAP5-7 /// NADSYN1 (11734609_at) / Fold change /veh KRTAP5-7 /// NADSYN1 (11734609_at) / RFU RASL12 (11751679_a_at) / Fold change /veh RASL12 (11751679_a_at) / RFU CDKN2B (11736163_a_at) / Fold change /veh CDKN2B (11736163_a_at) / RFU PRF1 (11729649_at) / Fold change /veh PRF1 (11729649_at) / RFU, ZNF638 /// ZNF638-IT1 / Fold change vs veh, ZNF638 /// ZNF638-IT1 / RFU, PANK3 / Fold change vs veh, PANK3 / RFU, SH3YL1 / Fold change vs veh, SH3YL1 / RFU, ZEB2 / Fold change vs veh, ZEB2 / RFU, NRIP1 / Fold change vs veh, NRIP1 / RFU, PTTG1IP / Fold change vs veh, PTTG1IP / RFU, CAPN2 / Fold change vs veh, CAPN2 / RFU, MED14 / Fold change vs veh, MED14 / RFU, SNORA58 / Fold change vs veh, SNORA58 / RFU, C1orf63 / Fold change vs veh, C1orf63 / RFU, LRRFIP1 / Fold change vs veh, LRRFIP1 / RFU, NDUFAF7 / Fold change vs veh, NDUFAF7 / RFU, SLC12A2 / Fold change vs veh, SLC12A2 / RFU, IBTK / Fold change vs veh, IBTK / RFU, ESF1 / Fold change vs veh, ESF1 / Fold change vs veh, TMEM50B / RFU, TAOK1 / Fold change vs veh, TAOK1 / RFU, ACBD3 / Fold change vs veh, ACBD3 / RFU, TMA16 / Fold change vs veh, TMA16 / RFU, RWDD3 / Fold change vs veh, RWDD3 / RFU, BCAT1 / Fold change vs veh, BCAT1 / RFU, EDEM3 / Fold change vs veh, EDEM3 / RFU, TMEM33 / Fold change vs veh, TMEM33 / RFU, WDR75 / Fold change vs veh, WDR75 / RFU, AHCTF1 / Fold change vs veh, AHCTF1 / RFU, TFRC / Fold change vs veh, TFRC / RFU, ZDHHC17 / Fold change vs veh, ZDHHC17 / RFU, NOM1 / Fold change vs veh, NOM1 / RFU, ARL8B / Fold change vs veh, ARL8B / RFU, ZBTB11 / Fold change vs veh, ZBTB11 / RFU, TAMM41 / Fold change vs veh, TAMM41 / RFU, KIAA1704 /// LOC100996395 / Fold change vs veh, KIAA1704 /// LOC100996395 / RFU, ING1 / Fold change vs veh, ING1 / RFU, TRMT61B / Fold change vs veh, TRMT61B / RFU, FUBP3 / Fold change vs veh, FUBP3 / RFU, TP53 / Fold change vs veh, TP53 / RFU, TNKS2 / Fold change vs veh, TNKS2 / RFU, ZFP14 / Fold change vs veh, ZFP14 / RFU, ACTR2 / Fold change vs veh, ACTR2 / RFU, PPP3R1 / Fold change vs veh, PPP3R1 / RFU, PIK3R1 / Fold change vs veh, PIK3R1 / RFU, HNRNPA1 / Fold change vs veh, HNRNPA1 / RFU, RNF170 / Fold change vs veh, RNF170 / RFU, ZNF28 / Fold change vs veh, ZNF28 / RFU, RNGTT / Fold change vs veh, RNGTT / RFU, OGT / Fold change vs veh, OGT / RFU, BRD1 / Fold change vs veh, BRD1 / RFU, MARS / Fold change vs veh, MARS / RFU, ZNF655 / Fold change vs veh, ZNF655 / RFU, FAHD1 / Fold change vs veh, FAHD1 / RFU, BDP1 / Fold change vs veh, BDP1 / RFU, LRRCC1 / Fold change vs veh, LRRCC1 / RFU, ARID1A / Fold change vs veh, ARID1A / RFU, ZNF146 / Fold change vs veh, ZNF146 / RFU, ZNF330 / Fold change vs veh, ZNF330 / RFU, GPN3 / Fold change vs veh, GPN3 / RFU, C9orf123 / Fold change vs veh, C9orf123 / RFU, N4BP2L2 / Fold change vs veh, N4BP2L2 / RFU, ARFIP1 / Fold change vs veh, ARFIP1 / RFU, FAM179B / Fold change vs veh, FAM179B / RFU, BCL10 / Fold change vs veh, BCL10 / RFU, UHRF1BP1L / Fold change vs veh, UHRF1BP1L / RFU, BET1 / Fold change vs veh, BET1 / RFU, CNOT2 / Fold change vs veh, CNOT2 / RFU, ZNF268 / Fold change vs veh, ZNF268 / Fold change vs veh, ZNF507 / RFU, DGCR2 / Fold change vs veh, DGCR2 / RFU, WDSUB1 / Fold change vs veh, WDSUB1 / Fold change vs veh, HSP90B1 /// MIR3652 / RFU, ADSS / Fold change vs veh, ADSS / RFU, GK / Fold change vs veh, GK / RFU, ZNF148 / Fold change vs veh, ZNF148 / RFU, TAF9 / Fold change vs veh, TAF9 / RFU, SLC1A5 / Fold change vs veh, SLC1A5 / RFU, SLMO2 / Fold change vs veh, SLMO2 / RFU, ABCC4 / Fold change vs veh, ABCC4 / RFU, LOC101060439 /// RAP1B / Fold change vs veh, LOC101060439 /// RAP1B / RFU, RFX7 / Fold change vs veh, RFX7 / RFU, GTPBP10 / Fold change vs veh, GTPBP10 / RFU, CNEP1R1 / Fold change vs veh, CNEP1R1 / RFU, BIVM-ERCC5 /// ERCC5 / Fold change vs veh, BIVM-ERCC5 /// ERCC5 / RFU, ILF3 / Fold change vs veh, ILF3 / RFU 11762660_at / Fold change /veh 11762660_at / RFU VCAN (11757783_s_at) / Fold change /veh VCAN (11757783_s_at) / RFU DDX43 (11728927_at) / Fold change /veh DDX43 (11728927_at) / RFU KRT8 (11758188_x_at) / Fold change /veh KRT8 (11758188_x_at) / RFU NKD1 (11759106_at) / Fold change /veh NKD1 (11759106_at) / RFU SRD5A1 (11742802_a_at) / Fold change /veh SRD5A1 (11742802_a_at) / RFU TPSAB1 /// TPSB2 (11721975_s_at) / Fold change /veh TPSAB1 /// TPSB2 (11721975_s_at) / RFU GSTM3 (11746129_a_at) / Fold change /veh GSTM3 (11746129_a_at) / RFU IL23R (11737362_x_at) / Fold change /veh IL23R (11737362_x_at) / RFU TMEM51 (11727254_a_at) / Fold change /veh TMEM51 (11727254_a_at) / RFU PIWIL2 (11732686_x_at) / Fold change /veh PIWIL2 (11732686_x_at) / RFU ORM1 (11744905_x_at) / Fold change /veh ORM1 (11744905_x_at) / RFU CCDC152 (11743942_at) / Fold change /veh CCDC152 (11743942_at) / RFU ECM1 (11717891_a_at) / Fold change /veh ECM1 (11717891_a_at) / RFU IL23R (11748794_a_at) / Fold change /veh IL23R (11748794_a_at) / RFU TNFAIP8L3 (11732012_x_at) / Fold change /veh TNFAIP8L3 (11732012_x_at) / RFU MBOAT4 (11741988_at) / Fold change /veh MBOAT4 (11741988_at) / RFU 11764193_at / Fold change /veh 11764193_at / RFU TMEM53 (11763286_at) / Fold change /veh TMEM53 (11763286_at) / RFU MAGEB2 (11727129_at) / Fold change /veh MAGEB2 (11727129_at) / RFU TMEM200A (11744735_a_at) / Fold change /veh TMEM200A (11744735_a_at) / RFU CCDC152 (11751479_a_at) / Fold change /veh CCDC152 (11751479_a_at) / RFU FAM211A (11726209_a_at) / Fold change /veh FAM211A (11726209_a_at) / RFU RGS16 (11746705_a_at) / Fold change /veh RGS16 (11746705_a_at) / RFU VCAN (11755009_s_at) / Fold change /veh VCAN (11755009_s_at) / RFU RHOB (11743442_s_at) / Fold change /veh RHOB (11743442_s_at) / RFU RGS16 (11720943_a_at) / Fold change /veh RGS16 (11720943_a_at) / RFU RGS16 (11720944_at) / Fold change /veh RGS16 (11720944_at) / RFU, VPS4B / Fold change vs veh, VPS4B / RFU, CREB1 / Fold change vs veh, CREB1 / RFU, DNAJC13 / Fold change vs veh, DNAJC13 / RFU, GNAQ / Fold change vs veh, GNAQ / RFU, CDK5R1 / Fold change vs veh, CDK5R1 / RFU, ZRANB3 / Fold change vs veh, ZRANB3 / RFU, CUL4A / Fold change vs veh, CUL4A / RFU, CCNY / Fold change vs veh, CCNY / RFU, UFL1 / Fold change vs veh, UFL1 / RFU, COG3 / Fold change vs veh, COG3 / RFU, DIAPH2 / Fold change vs veh, DIAPH2 / RFU, SKA2 / Fold change vs veh, SKA2 / RFU, AFF3 / Fold change vs veh, AFF3 / RFU, LMF1 / Fold change vs veh, LMF1 / RFU, IPO11 / Fold change vs veh, IPO11 / RFU, DFFB / Fold change vs veh, DFFB / RFU, FOXP1 / Fold change vs veh, FOXP1 / RFU, CARD8 / Fold change vs veh, CARD8 / RFU, STRN3 / Fold change vs veh, STRN3 / RFU, ADK / Fold change vs veh, ADK / RFU, RASSF2 / Fold change vs veh, RASSF2 / RFU, WIPF1 / Fold change vs veh, WIPF1 / RFU, LARP1B / Fold change vs veh, LARP1B / RFU, RASA1 / Fold change vs veh, RASA1 / RFU, RB1 / Fold change vs veh, RB1 / RFU, PPFIA1 / Fold change vs veh, PPFIA1 / RFU, MAT2A / Fold change vs veh, MAT2A / RFU, CCT5 / Fold change vs veh, CCT5 / RFU, WDR92 / Fold change vs veh, WDR92 / RFU, CUX1 / Fold change vs veh, CUX1 / RFU, TTC7A / Fold change vs veh, TTC7A / RFU, TMEM135 / Fold change vs veh, TMEM135 / RFU, DEPTOR / Fold change vs veh, DEPTOR / RFU, CPM / Fold change vs veh, CPM / RFU, DNAJB6 / Fold change vs veh, DNAJB6 / RFU, CACNA2D3 / Fold change vs veh, CACNA2D3 / RFU, DTX4 / Fold change vs veh, DTX4 / RFU, TFCP2 / Fold change vs veh, TFCP2 / RFU, GMCL1 /// GMCL1P1 / Fold change vs veh, GMCL1 /// GMCL1P1 / RFU, AEBP2 / Fold change vs veh, AEBP2 / RFU, SNHG1 /// SNORD22 /// SNORD25 /// SNORD26 /// SNORD27 /// SNORD28 /// SNORD29 /// SNORD31 / Fold change vs veh, SNHG1 /// SNORD22 /// SNORD25 /// SNORD26 /// SNORD27 /// SNORD28 /// SNORD29 /// SNORD31 / Fold change (Aza/veh), C12orf56 (ProbeSet 11735607_a_at) / Fold change (ACY-1035/veh), C12orf56 (ProbeSet 11735607_a_at) / Fold change (Aza/veh), FGFR1OP (ProbeSet 11751329_s_at) / Fold change (ACY-1035/veh), FGFR1OP (ProbeSet 11751329_s_at) / Fold change (Aza/veh), VPS36 (ProbeSet 11739960_a_at) / Fold change (ACY-1035/veh), VPS36 (ProbeSet 11739960_a_at) / RFU SYPL1 (11715823_x_at) / Fold change /veh SYPL1 (11715823_x_at) / RFU IGFBP7 (11715501_s_at) / Fold change /veh IGFBP7 (11715501_s_at) / RFU REEP3 (11722064_at) / Fold change /veh REEP3 (11722064_at) / RFU IGLL1 (11728026_x_at) / Fold change /veh IGLL1 (11728026_x_at): dose or concentration left out as unconfirmed", "conditions": "MV-4-11 cells, 48 hours"}
{"smiles": "Nc1ccc(-c2cccs2)cc1NC(=O)c1ccc2c(c1)cc(C1CC1)n2CCN1CCOCC1", "note": "[ACY-1035]", "values": [{"measurement": "Fold change /veh OLFML3 (11715873_a_at)", "value": 1.17}]}
